According to patent publication US11578071B2, “Preparation of pyrazolo[3,4-B]pyridines as antimalarials” (University of Kentucky Research Foundation, priority 2019, dated 2023):

Tests used:
[1] = test system: erythrocytes infected with the 3D7 strain; assay: FACS Killing Rate Assay; format: cell-based, Plasmodium falciparum; set-up: % Survival at 0 h: concentration or dose not given beside the values; conditions: for % Survival (24 h) / % Survival (48 h) / % Survival at 0 h: 3D7; for % Survival (24 h): 24 h treatment at 10× IC50; for % Survival (24 h) / % Survival (48 h): mean ± SD of two measurements; for % Survival (48 h): 48 h treatment at 10× IC50; for % Survival at 0 h: treatment time 0 h; for killing profile: in words, compared with chloroquine, pyrimethamine, atovaquone, artesunate
Description: After treatment, the compound is removed and the culture is diluted (⅓^rd dilution) using fresh erythrocytes (2% hematocrit) previously labeled with CFDA-SE (carboxylfluorescein diacetate succinimidyl ester, Life Technologies). […] Samples were analyzed using the Attune N×T software package.

[2] = test system: P. falciparum 3D7 gametocytes; assay: Gametocyte EC50 determination; format: cell-based; conditions: Plasmodium falciparum
Description: Asexual cultures of P. falciparum 3D7 parasites were used to seed gametocyte cultures at 1% parasitemia and 4% hematocrit as previously described. Culture medium (RPMI medium with 25 mM HEPES, 50 mg/L hypoxanthine, 2 g/L sodium bicarbonate and 10% human serum) was replaced daily for at least 14 day with all solutions, pipettes and work surfaces treated at 37° C. Typical cultures follow the pattern of asexual parasitemia rising to a peak and crashing at days 4-5, with stage II gametocytes visible at day 7, stage III visible at day 9, stage IV visible at day 11, and stage V visible at day 14 with high levels of exflagellation.
To determine EC50 values, the number of exflagellation centers per field, mean oocyst intensity and prevalence of infection were normalized to the respective DMSO treated control and % inhibition calculated. Tested compounds were prepared as a DMSO solutions from 25 μM to 0.026 μM across 22 points. Percentage inhibition data obtained from each individual parameter was fitted to a four-parameter logistic equation with variable slope using GraphPad Prism 6.07 for which compound concentrations were first transformed to their respective log10 values. The data were then fitted using these transformed values without defining constraints.

[3] = test system: P. berghei luciferase sporozoites in HepG2-A16-CD81EGFP cells; assay: Plasmodium Berghei Luciferase Liver Stage Bioluminescence Assay; format: cell-based; conditions: in words
HepG2-A16-CD81EGFP cells = assay: HepG2 Cytotoxicity Bioluminescence Assay; format: cell-based; conditions: Homo sapiens, 48 h, mean ± SD of two measurements

SMILES | melting point | % Survival at 0 h [1] | further results
C[C@H]1[C@H](OC(=O)CCC(=O)O)O[C@@H]2O[C@@]3(C)CC[C@H]4[C@H](C)CC[C@@H]1[C@@]24OO3 [Artesunate] | – | 100% | % Survival (24 h) [1]: 17.50 ± 3.68%; % Survival (48 h) [1]: 6.44 ± 0.51%
O=C1C(O)=C([C@H]2CC[C@H](c3ccc(Cl)cc3)CC2)C(=O)c2ccccc21 [Atovaquone] | – | 100% | % Survival (24 h) [1]: 78.96 ± 3.89%; % Survival (48 h) [1]: 39.89 ± 4.37%
CCN(CC)CCCC(C)Nc1ccnc2cc(Cl)ccc12 (stereo not drawn) [Chloroquine] | – | 100% | % Survival (24 h) [1]: 18.69 ± 7.34%; % Survival (48 h) [1]: 9.21 ± 2.08%
CCc1ccc(-c2nc3c(c(C)nn3-c3ccccc3)c(-c3ccccc3C#N)c2C#N)cc1 [Compound 7, 4-(2-Cyanophenyl)-6-(4-ethylphenyl)-3-methyl-1-phenyl-1H-pyrazolo[3,4-b]pyridine-5-carbonitrile] | 201 to 203 °C | – | –
CCc1ccc(-c2nc3c(c(C)nn3-c3ccccc3)c(-c3ccccc3I)c2C#N)cc1 [Compound 8, 6-(4-Ethylphenyl)-4-(2-iodophenyl)-3-methyl-1-phenyl-1H-pyrazolo[3,4-b]pyridine-5-carbonitrile] | 205 to 207 °C | – | –
CCc1ccc(-c2nc3c(c(C)nn3-c3ccccc3)c(-c3ccccc3Cl)c2C#N)cc1 [Compound 10, 4-(2-Chlorophenyl)-6-(4-ethylphenyl)-3-methyl-1-phenyl-1H-pyrazolo[3,4-b]pyridine-5-carbonitrile] | – | 100% | killing profile [1]: slow killing profile; EC50 [2]: > 25 µM; potency against the liver stage of the parasite [3]: sub-micromolar potency; EC50 (HepG2-A16-CD81EGFP cells): > 50 µM
CCc1ccc(-c2nc3c(c(C)nn3-c3ccccc3)c(-c3ccccc3OC)c2C#N)cc1 [Compound 16, 6-(4-Ethylphenyl)-4-(2-methoxyphenyl)-3-methyl-1-phenyl-1H-pyrazolo[3,4-b]pyridine-5-carbonitrile] | 196 to 198 °C | – | –
CCc1ccc(-c2nc3c(c(C)nn3-c3ccccc3)c(-c3ccccc3OC(F)(F)F)c2C#N)cc1 [Compound 17, 6-(4-Ethylphenyl)-3-methyl-1-phenyl-4-[2-(trifluoromethoxy)phenyl]-1H-pyrazolo[3,4-b]pyridine-5-carbonitrile] | – | – | EC50 [2]: > 25 µM; potency against the liver stage of the parasite [3]: sub-micromolar potency; EC50 (HepG2-A16-CD81EGFP cells): > 25 µM
Cc1nn(-c2ccccc2)c2nc(-c3ccc(C(C)(C)C)cc3)c(C#N)c(-c3ccccc3O)c12 [Compound 27, 6-(4-tert-butylphenyl)-4-(2-hydroxyphenyl)-3-methyl-1-phenyl-1H-pyrazolo[3,4-b]pyridine-5-carbonitrile] | – | 100% | killing profile [1]: moderate killing profile; EC50 [2]: > 25 µM
Cc1nn(-c2ccccc2)c2nc(-c3ccc(F)cc3)c(C#N)c(-c3ccccc3O)c12 [Compound 31, 6-(4-fluorophenyl)-4-(2-hydroxyphenyl)-3-methyl-1-phenyl-1H-pyrazolo[3,4-b]pyridine-5-carbonitrile] | 234 to 236 °C | – | –
Cc1nn(-c2ccccc2)c2nc(-c3ccc(C#N)cc3)c(C#N)c(-c3ccccc3O)c12 [Compound 34, 6-(4-cyanophenyl)-4-(2-hydroxyphenyl)-3-methyl-1-phenyl-1H-pyrazolo[3,4-b]pyridine-5-carbonitrile] | 165 to 166 °C | – | –
Cc1nn(-c2ccccc2)c2nc(-c3ccc([N+](=O)[O-])cc3)c(C#N)c(-c3ccccc3O)c12 [Compound 35, 4-(2-hydroxyphenyl)-3-methyl-6-(4-nitrophenyl)-1-phenyl-1H-pyrazolo[3,4-b]pyridine-5-carbonitrile] | 257 to 258 °C | – | –
CCc1nc(N)nc(N)c1-c1ccc(Cl)cc1 [Pyrimethamine] | – | 100% | % Survival (24 h) [1]: 56.37 ± 2.55%; % Survival (48 h) [1]: 16.02 ± 4.36%

The next lines start with results.

melting point | SMILES | % Survival at 0 h [1] | further results
208 to 209 °C | CCc1ccc(-c2nc3c(c(C)nn3-c3ccccc3)c(-c3ccccc3Br)c2C#N)cc1 [Compound 9, 4-(2-Bromophenyl)-6-(4-ethylphenyl)-3-methyl-1-phenyl-1H-pyrazolo[3,4-b]pyridine-5-carbonitrile] | – | –
197 to 199 °C | CCc1ccc(-c2nc3c(c(C)nn3-c3ccccc3)c(-c3ccccc3F)c2C#N)cc1 [Compound 11, 6-(4-Ethylphenyl)-4-(2-fluorophenyl)-3-methyl-1-phenyl-1H-pyrazolo[3,4-b]pyridine-5-carbonitrile] | – | –
203 to 204 °C | CCc1ccc(-c2nc3c(c(C)nn3-c3ccccc3)c(-c3ccccc3C)c2C#N)cc1 [Compound 12, 6-(4-Ethylphenyl)-3-methyl-4-(2-methylphenyl)-1-phenyl-1H-pyrazolo[3,4-b]pyridine-5-carbonitrile] | – | –
193 to 195 °C | CCc1ccc(-c2nc3c(c(C)nn3-c3ccccc3)c(-c3ccccc3C(F)(F)F)c2C#N)cc1 [Compound 15, 6-(4-Ethylphenyl)-3-methyl-1-phenyl-4-[2-(trifluoromethyl)phenyl]-1H-pyrazolo[3,4-b]pyridine-5-carbonitrile] | – | –
254 to 256 °C | Cc1nn(-c2ccccc2)c2nc(-c3ccc(C(F)(F)F)cc3)c(C#N)c(-c3ccccc3O)c12 [Compound 30, 4-(2-hydroxyphenyl)-3-methyl-1-phenyl-6-[4-(trifluoromethyl)phenyl]-1H-pyrazolo[3,4-b]pyridine-5-carbonitrile] | – | –
281 to 282 °C | Cc1nn(-c2ccccc2)c2nc(-c3ccc(Cl)cc3)c(C#N)c(-c3ccccc3O)c12 [Compound 32, 6-(4-chlorophenyl)-4-(2-hydroxyphenyl)-3-methyl-1-phenyl-1H-pyrazolo[3,4-b]pyridine-5-carbonitrile] | – | –
289 to 291 °C | Cc1nn(-c2ccccc2)c2nc(-c3ccc(I)cc3)c(C#N)c(-c3ccccc3O)c12 [Compound 33, 4-(2-hydroxyphenyl)-6-(4-iodophenyl)-3-methyl-1-phenyl-1H-pyrazolo[3,4-b]pyridine-5-carbonitrile] | – | –
